Data on 36 compounds can be found in patent publication US8575153B2 (Kowa Company, Ltd., priority 2008, dated 2013).

Where a name gives a salt, the structure may show the parent alone.

For this assay, the target named is Recombinant human JAK3 enzyme (JAK3 kinase region; Ala795-Ser1124) (Homo sapiens, UniProt P52333). Briefly: JAK3 Kinase Assay (Kinase-Glo luminescent, ATP consumption). To be noted: read-out: Inhibition rate (%) of JAK3 kinase activity. Background: Kinase-Glo reads ATP consumption through a luciferase reaction.
Sequence of Recombinant human JAK3 enzyme (JAK3 kinase region; Ala795-Ser1124) (P52333 795-1124): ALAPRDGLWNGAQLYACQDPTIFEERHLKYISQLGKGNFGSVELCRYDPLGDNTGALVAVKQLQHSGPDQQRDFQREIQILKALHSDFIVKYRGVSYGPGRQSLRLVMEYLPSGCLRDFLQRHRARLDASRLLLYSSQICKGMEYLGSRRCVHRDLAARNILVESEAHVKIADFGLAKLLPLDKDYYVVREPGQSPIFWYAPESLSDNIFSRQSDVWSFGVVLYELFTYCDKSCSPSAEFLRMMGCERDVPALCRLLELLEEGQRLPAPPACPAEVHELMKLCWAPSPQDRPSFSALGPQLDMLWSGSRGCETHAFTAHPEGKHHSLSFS
A word on the inhibition: it is the change of the read-out against control, counted positive when it falls. For `NC(=O)c1cnc(Nc2ccc(NC(=O)C3CCNCC3)cc2)cc1NCc1ccccc1` [Example 314, 4-(benzylamino)-6-({4-[piperidin-4-ylcarbonyl]amino]phenyl}amino)pyridine-3-carboxyamide hydrochloride], the inhibition at 0.1 µM was 60%.

Regarding `NC(=O)c1cnc(Nc2ccncc2)cc1NCc1ccccc1` [Example 372, 4-benzylamino-6-(pyridin-4-ylamino) pyridine-3-carboxyamide], the inhibition at 1 µM came out at 31%.

For the compound `N#CCCN1CCN(c2ccc(Nc3cc(NCc4ccccc4)c(C(N)=O)cn3)cc2)CC1` [Example 241], the inhibition at 0.1 µM is 70%.

In the case of `CC(C)N1CCN(c2ccc(Nc3cc(NCc4cccc(F)c4F)c(C(N)=O)cn3)cc2)CC1` [Example 150, 4-[(2,3-difluorobenzyl)amino]-6-({4-[4-(propan-2-yl)piperazin-1-yl]phenyl}amino)pyridine-3-carboxyamide], the inhibition at 0.1 µM was 66%.

For the compound `CC(C)N1CCN(c2ccc(Nc3cc(NCc4ccccc4)c(C(N)=O)cn3)cc2)CC1` [Example 146, 4-(benzylamino)-6-({4-[4-(propan-2-yl)piperazin-1-yl]phenyl}amino)pyridine-3-carboxyamide], the inhibition at 0.1 µM turned out to be 78%.

In the case of `COc1ccccc1CNc1cc(Nc2ccc(N3CCN(C(C)C)CC3)cc2)ncc1C(N)=O` [Example 147, 4-[(2-methoxybenzyl)amino]-6-({4-[4-(propan-2-yl)piperazin-1-yl]phenyl}amino)pyridine-3-carboxyamide], the inhibition at 0.1 µM was 58%.

Take `NC(=O)c1cnc(Nc2ccc(N3CCC(O)CC3)cc2)cc1NCc1cc(F)ccc1F` [Example 188, 4-[(2,5-difluorobenzyl)amino]-6-[(4-(4-hydroxypiperidino)phenyl]amino}pyridine-3-carboxyamide]: the inhibition at 0.1 µM was 89%.

On to `NC(=O)c1cnc(Nc2ccc(N3CCOCC3)cc2)cc1NCc1c(F)cccc1F` [Example 94, 4-[(2,6-difluorobenzyl)amino]-6-[(4-morpholinophenyl)amino]pyridine-3-carboxyamide], for which the inhibition at 0.1 µM stood at 96%.

Turning to `CCN(CC)CCN1CCN(c2ccc(Nc3cc(NCc4ccccc4)c(C(N)=O)cn3)cc2)CC1` [Example 236, 4-(benzylamino)-6-[(4-{4-[2-(diethylamino)ethyl]piperazin-1-yl}phenyl)amino]pyridine-3-carboxyamide], the inhibition at 0.1 µM turned out to be 83%.

Regarding `CC(=O)N1CCCC1CNc1cc(Nc2ccc(N3CCOCC3)cc2)ncc1C(N)=O` (stereo not drawn) [Example 360, 4-{[(1-acetylpyrrolidin-2-yl)methyl]amino}-6-[(4-morpholinophenyl)amino]pyridine-3-carboxyamide], the inhibition at 1 µM was 57%.

As for `CN1CCCN(c2ccc(Nc3cc(NCc4ccccc4)c(C(N)=O)cn3)cc2)CC1` [Example 244, 4-(benzylamino)-6-{[4-(4-methyl-1,4-diazepan-1-yl)phenyl]amino}pyridine-3-carboxyamide], the inhibition at 0.1 µM came to 59%.

For `NC(=O)c1cnc(Nc2ccc(N3CCOCC3)cc2)cc1NCc1cccc(F)c1F` [Example 90, 4-[(2,3-difluorobenzyl)amino]-6-[(4-morpholinophenyl)amino]pyridine-3-carboxyamide], the inhibition at 0.1 µM was found to be 77%.

On to `NC(=O)c1cccc(CNc2cc(Nc3ccc(N4CCOCC4)cc3)ncc2C(N)=O)c1` [Example 115, 4-[(3-carbamoylbenzyl)amino]-6-[(4-morpholinophenyl)amino]pyridine-3-carboxyamide], for which the inhibition at 0.1 µM stood at 70%.

Consider `Cc1ccccc1CNc1cc(Nc2ccc(N3CCOCC3)cc2)ncc1C(N)=O` [Example 76, 4-[(2-methylbenzyl)amino]-6-[(4-morpholinophenyl)amino]pyridine-3-carboxyamide], for which the inhibition at 0.1 µM came to 63%.

On to `NC(=O)c1cnc(Nc2ccc(CN3CCOCC3)cc2)cc1NCc1ccccc1` [Example 318, 4-(benzylamino)-6-{[4-(morpholinomethyl)phenyl]amino}pyridine-3-carboxyamide], for which the inhibition at 0.1 µM came out at 83%.

On to `NC(=O)c1cnc(Nc2ccc(N3CCOCC3)cc2)cc1NCc1cc(F)cc(F)c1` [Example 91, 4-[(3,5-difluorobenzyl)amino]-6-[(4-morpholinophenyl)amino]pyridine-3-carboxyamide], for which the inhibition at 0.1 µM was 92%.

On to `NCCS(=O)(=O)Nc1ccc(Nc2cc(NCc3cc(F)cc(F)c3)c(C(N)=O)cn2)cc1` [Example 305, 6-[(4-{[(2-aminoethyl)sulfonyl]amino}phenyl)amino]-4-[(3,5-difluorobenzyl)amino]pyridine-3-carboxyamide], for which the inhibition at 0.1 µM was 77%.

Turning to `NC(=O)c1cnc(-n2cnc3ccccc32)cc1NCc1cc(F)cc(F)c1` [Example 365, 6-(1H-benzimidazol-1-yl)-4-[(3,5-difluorobenzyl)amino]pyridine-3-carboxyamide], the inhibition at 1 µM is 62%.

As for `CCN(CC)CCC1CCN(c2ccc(Nc3cc(NCc4ccccc4)c(C(N)=O)cn3)cc2)CC1` [Example 59, 4-(benzylamino)-6-[(4-{4-[2-(diethylamino)ethyl]piperidino}phenyl)amino]pyridine-3-carboxyamide], the inhibition at 0.1 µM worked out at 76%.

In the case of `NC(=O)c1cnc(Nc2ccc(N3CCNCC3)cc2)cc1NCc1cc(F)ccc1F` [Example 222, 4-[(2,5-difluorobenzyl)amino]-6-{[4-(piperazin-1-yl)phenyl]amino}pyridine-3-carboxyamide], the inhibition at 0.1 µM is 78%.

For the compound `NC(=O)c1cnc(Nc2ccc(N3CCOCC3)cc2)cc1NCc1ccccn1` [Example 363, 6-[(4-morpholinophenyl)amino]-4-[(pyridin-2-ylmethyl)amino]pyridine-3-carboxyamide], the inhibition at 1 µM came to 67%.

As to `NC(=O)c1cnc(Nc2ccc(N3CCOCC3)cc2)cc1NCc1ccccc1` [Example 72, 4-(benzylamino)-6-{(4-morpholinophenyl)amino]pyridine-3-carboxyamide], the inhibition at 0.1 µM is 65%.

For `CC(C)N1CCN(c2ccc(Nc3cc(NCc4cccnc4)c(C(N)=O)cn3)cc2)CC1` [Example 356, 6-({4-[4-(propan-2-yl)piperazin-1-yl]phenyl}amino)-4-[(pyridin-3-ylmethyl)amino]pyridine-3-carboxyamide], the inhibition at 1 µM was determined as 92%.

In the case of `NC(=O)c1cnc(Nc2ccc(N)cc2)cc1NCc1ccccc1` [Example 65, 6-[(4-aminophenyl)amino]-4-(benzylamino) pyridine-3-carboxyamide], the inhibition at 0.1 µM turned out to be 79%.

For `NC(=O)c1cnc(Nc2ccc(N3CCNCC3)cc2)cc1NCc1cccnc1` [Example 355, 6-{(4-(piperazin-1-yl)phenyl]amino}-4-[(pyridin-3-ylmethyl)amino}pyridine-3-carboxyamide], the inhibition at 1 µM turned out to be 92%.

For the compound `N#CCCC1CCN(c2ccc(Nc3cc(NCc4ccccc4)c(C(N)=O)cn3)cc2)CC1` [Example 60, 4-(benzylamino)-6-({4-[4-(2-cyanoethyl)piperidino]phenyl}amino)pyridine-3-carboxyamide], the inhibition at 0.1 µM was 65%.

Consider `N#CCC(=O)N1CCCN(c2ccc(Nc3cc(NCc4ccccc4)c(C(N)=O)cn3)cc2)CC1` [Example 268, 4-(benzylamino)-6-({4-[4-(cyanoacetyl)-1,4-diazepan-1-yl]phenyl}amino)pyridine-3-carboxyamide], for which the inhibition at 0.1 µM is 65%.

As to `CCN(CC)CC(=O)N1CCN(c2ccc(Nc3cc(NCc4ccccc4)c(C(N)=O)cn3)cc2)CC1` [Example 274, 4-(benzylamino)-6-({4-[4-(N,N-diethylglycyl)piperazin-1-yl]phenyl}amino)pyridine-3-carboxyamide], the inhibition at 0.1 µM turned out to be 79%.

`CN(CCN1CCOCC1)c1ccc(Nc2cc(NCc3ccccc3)c(C(N)=O)cn2)cc1` [Example 71, 4-(benzylamino)-6-({4-[methyl(2-morpholinoethyl)amino]phenyl}amino)pyridine-3-carboxyamide]: the inhibition at 0.1 µM was 70%.

As for `CCN(CC)CC(=O)N1CCN(c2ccc(Nc3cc(NCc4cc(F)cc(F)c4)c(C(N)=O)cn3)cc2)CC1` [Example 275, 6-({4-[4-(N,N-diethylglycyl)piperazin-1-yl]phenyl}amino)-4-[(3,5-difluorobenzyl)amino]pyridine-3-carboxyamide], the inhibition at 0.1 µM worked out at 96%.

For the compound `NC(=O)c1cnc(Nc2ccc(N3CCNCC3)cc2)cc1NCc1cc(F)cc(F)c1` [Example 221, 4-[(3,5-difluorobenzyl)amino]-6-{[4-(piperazin-1-yl)phenyl]amino}pyridine-3-carboxyamide], the inhibition at 0.1 µM worked out at 78%.

With `CC(C)S(=O)(=O)Nc1cccc(Nc2cc(NCc3cc(F)cc(F)c3)c(C(N)=O)cn2)c1` [Example 165, 4-[(3,5-difluorobenzyl)amino]-6-({3-[(propan-2-ylsulfonyl)amino]phenyl}amino)pyridine-3-carboxyamide], the inhibition at 0.1 µM worked out at 54%.

Regarding `COc1ccccc1CNc1cc(Nc2ccc(N3CCOCC3)cc2)ncc1C(N)=O` [Example 73, 4-[(2-methoxybenzyl)amino]-6-[(4-morpholinophenyl)amino]pyridine-3-carboxyamide], the inhibition at 0.1 µM is 56%.

Consider `CC(C)S(=O)(=O)N1CCN(c2ccc(Nc3cc(NCc4c(F)cccc4F)c(C(N)=O)cn3)cc2)CC1` [Example 172, 4-[(2,6-difluorobenzyl)amino]-6-({4-[4-(propan-2-ylsulfonyl)piperazin-1-yl]phenyl}amino) pyridine-3-carboxyamide], for which the inhibition at 0.1 µM is 59%.

On to `NC(=O)c1cnc(Nc2ccc(S(N)(=O)=O)cc2)cc1NCc1cc(F)cc(F)c1` [Example 328, 4-[(3,5-difluorobenzyl)amino]-6-[(4-sulfamoylphenyl)amino]pyridine-3-carboxyamide], for which the inhibition at 0.1 µM came to 70%.

Consider `NC(=O)c1cnc(Nc2ccc(N3CCC(CCO)CC3)cc2)cc1NCc1ccccc1` [Example 57, 4-(benzylamino)-6-({4-[4-(2-hydroxyethyl)piperidino]phenyl}amino)pyridine-3-carboxyamide], for which the inhibition at 0.1 µM was found to be 89%.
